Numbering of substitutions follows the chain as printed. Numbers in names are those of the source. Marks after values point to notes of the source that are not given here.
What was measured:
[1] = tested on: rat model of heart failure with reduced ejection fraction (HFrEF); assay: Rat MI model, captopril, Example 10 or combination, echocardiography; format: in vivo; parameters: Left Ventricle Diameter (end diastole): unit not given here
Experimental: A nonclinical efficacy pharmacology study is conducted in a rat model of heart failure with reduced ejection fraction (HFrEF) to evaluate cardiac function and structure changes after captopril treatment, Example 10 treatment or combination treatment.
The left coronary artery is permanently ligated. All rats are individually housed in a temperature and humidity controlled room and maintained on a 12 hour light/dark cycle. Two to three weeks after surgery, rats undergo transthoracic echocardiography for determination of ejection fraction (EF %) and left ventricle dimensions (LVD) using a Vevo 2100 ultrasound system. Rats are randomized across treatment groups according to EF % and LVD.
Measurements of EF % and LVD are expressed as mean values±standard error (SE). Statistical analysis is performed with JMP® 13 software (SAS Institute, Inc.; Cary, N.C.) and Dunnett's Test is used for statistical comparisons across treatment groups. Statistical significance is accepted at P<0.05.
Three weeks after MI surgery, animals are randomized to 2 treatment groups (Placebo or captopril, 2 g/L in drinking water, ad lib) according to EF % and LVD. Three weeks and four weeks after dosing starts, cardiac function (EF %) and structure (LVD) are evaluated by transthoracic echocardiography. Animals are further randomized to additional groups based on cardiac function (EF %) and structure (LVD) to the following groups: Placebo, Example 10, captopril and Example 10+captopril. Animals in the Example 10 groups receive a single injection on week 4 after the 2nd randomization. Cardiac function (EF %) and structure (LVD) are evaluated on week 5 and 6.

human HER2 and HER4 = target: T1, human HER2 and HER4 (Homo sapiens, UniProt Q15303); assay: Screening by human HER2-HER4 mediated ERK 1/2 phosphorylation in CHO-hHER2-hHER4 (clone 1H6) cells; format: cell-based; settings: Fc variants as 293F supernatants
T1 construct: expressed in transfected cells
Experimental: A cell based assay utilizing CHO-K1 cells overexpressing human or rat HER receptors is used to determine activity of NRG4 compounds. CHO-K1 cells (ATCC) are grown in DMEM-F12 3:1 with 5% FBS with 20 mM HEPES, 40 μg/mL L-Proline, lx antibiotics and were split 1:5 every 2-3 days with TripLE Express (Gibco). Cells are transfected with plasmid DNA encoding HER receptors in pairs (hHER2-3, hHER2-4, rHER2-3 and rHER2-4) with Fugene 6 (Promega) according to the manufacturer's instructions. […] Transfected cells are selected with Puromycin (12 ug/ml) and Hygromycin (1 mg/ml) for 3-4 weeks and clonal lines are obtained by limited dilution cloning into 96 well plates. Clonal lines are selected by appropriate gene expression of HER2, HER3 or HER4 by Taqman method. Lines with appropriate receptor expression are confirmed by NRG1 induced phospho-ERK 1/2 responses. Clones are grown up, harvested, aliquoted into cryovials and then frozen under liquid nitrogen for long-term storage.
A phospho-ERK1/2 activity assay is used to determine potencies of NRG4 compounds. The potency of Examples 1-8 and 10 as compared to WT human NRG1 and/or human NRG4 are analyzed in studies measuring stimulation of human HER2-HER4 mediated ERK 1/2 phosphorylation. This assay comprises a CHO-K1 stable line expressing human HER2 and HER4. CHO-hHER2-hHER4 (clone 1H6) cells are routinely cultured in DMEM: F12(3:1), 5% FBS, 40 μg/mL L-Proline, 10 μg/mL puromycin and 1 mg/mL hygromycin at 37° C., 5% CO2. Cells are washed twice with 1×PBS, dissociated with 0.05% trypsin/[…] EDTA and collected by centrifugation at 300×g for 10 m. Cells are re-suspended in maintenance media. 20,000 cells/well, in 30 μL, are seeded into 384 well Poly-D-Lysine cell culture plates (Greiner, Cat No. 781946). Plates are covered with a manufacturer's lid and moved to a 37° C. tissue culture incubator at 5% CO^2, 80%+ humidity and allowed to adhere. After 24 h, media are removed from the plates and replaced with 30 μL serum-free starvation media (Low glucose DMEM with 0.1% BSA) using a Biomek FX liquid handler. Plates are returned to the incubator for 24 h.
hFcNRG4 variants, transiently expressed as 293F supernatants, are prepared in starvation media in a clear 384W plate (Greiner, cat no. 781185) as a 4pt 1:8 serial dilution (dose range averaged between 250 pM to 140000 pM). Media are removed from the cell culture plates and the 30 uL/well prepared variants are stamped into the plates using a Biomek FX liquid handler. Plates are sealed with a foil seal and stimulated for 15 minutes at room temperature on an orbital shaker. Cells are then washed once with 50 uL cold PBS. 30 uL lysis buffer is added to the cells and oscillated for 10 m at RT on an orbital shaker.
Detection of phosphorylation of ERR 1/2 is performed with either an AlphaScreen SureFire phospho-ERK1/2 kit (T202/Y204) (Perkin Elmer, catalog no. TGRES) or an AlphaLISA® SureFire® Ultra™ p ERK1/2 assay kit together with the AlphaScreen Protein. A IgG Detection Kit (Protein-A) (PerkinElmer, catalogue no. 6760617). After lysis of the CHO-K1 cells. 4 μL lysate is transferred to a 384W Alpha Proxiplate (Perkin Elmer, cat no, 6008280) with a 384W Biomek FX. 4 uL positive and negative lysates (Perkin Elmer, TGRES-L) are added to available wells as controls. 5 uL/well acceptor mix (containing anti-phoso-Thr202/Tyr204 antibodies and Protein A conjugated acceptor beads) is added to the plate with a Forumlatrix Mantis. The plate is sealed, spun down for 1 min at 300×g and incubated for 2 hr at room temperature on an orbital shaker. 2 μL/well donor mix (containing strepavidin coated donor beads and biotinylated antibodies to a distal ERK1/2 epitope) is dispensed by Mantis. The plate is sealed, spun down for 1 min at 300×g and incubated for 2 hr at room temperature on an orbital shaker before reading on the Perkin Elmer Envision 2103 Multilabel Reader (HIS Alpha mode, excitation time: 40 ms, total measurement time: 130 ms). […]

[2] = Baseline (before captopril 2 g/L in drinking water)
[3] = Week 3 of captopril 2 g/L in drinking water
[4] = Week 4 (2nd randomization; before the single injection of Example 10)
[5] = Week 5 (single injection of Example 10 on week 4; captopril 2 g/L in drinking water)
[6] = Week 6 (single injection of Example 10 on week 4; captopril 2 g/L in drinking water)
[7] = Table 5, Examples average of two replicates ± standard deviation

C[C@H](CS)C(=O)N1CCC[C@H]1C(=O)O [Captopril, captopril]
Ejection Fraction [1, 2]: 39.1% | Left Ventricle Diameter (end diastole) [1, 2]: 8.66 | Ejection Fraction [1, 3]: 38.4% | Left Ventricle Diameter (end diastole) [1, 3]: 8.57 | Ejection Fraction [1, 4]: 36.1% | Left Ventricle Diameter (end diastole) [1, 4]: 8.64 | Ejection Fraction [1, 5]: 36.2% | Left Ventricle Diameter (end diastole) [1, 5]: 8.64* | Ejection Fraction [1, 6]: 34.6% | Left Ventricle Diameter (end diastole) [1, 6]: 8.71*

B1: Example 3: NRG4 D1G/V22Q, (GGGGS)3 linker, SEQ ID NO: 12, fused to IgG Fc dimer SEQ ID NO: 6 and 7 (protein)
chain 1: GGGGSGGGGSGGGGSGHEEPCGPSHKSFCLNGGLCYQIPTIPSPFCRCVENYTGARCEEVFL
chain 2: ECPPCPAPPVAGPSVFLFPPKPKDTLMISRTPEVTCVVVDVSHEDPEVQFNWYVDGVEVHNAKTKPREEQFNSTFRVVSVLTVVHQDWLNGKEYKCKVSNKGLPAPIEKTISKTKGQPREPQVYTLPPSREEMTKNQVSLWCLVKGFYPSDIAVEWESNGQPENNYKTTPPVLDSDGSFFLYSKLTVDKSRWQQGNVFSCSVMHEALHNHYTQKSLSLSPG
chain 3: B1 chain 2 with W141S, L143A, Y182V
EC50 (human HER2 and HER4; [7]): 0.29 ± 0.01 nM

B2: Example 4: NRG4 D1G/I26F, (GGGGS)3 linker, SEQ ID NO: 13, fused to IgG Fc dimer SEQ ID NO: 6 and 7 (protein)
chain 1: B1 chain 1 with Q37V, I41F
chain 2: B1 chain 2
chain 3: B1 chain 2 with W141S, L143A, Y182V
EC50 (human HER2 and HER4; [7]): 0.53 ± 0.05 nM

B3: Example 2: NRG4 D1G/P8E, (GGGGS)3 linker, SEQ ID NO: 11, fused to IgG Fc dimer SEQ ID NO: 6 and 7 (protein)
chain 1: B1 chain 1 with P23E, Q37V
chain 2: B1 chain 2
chain 3: B1 chain 2 with W141S, L143A, Y182V
EC50 (human HER2 and HER4; [7]): 2.77 ± 0.39 nM

B4: Example 7: NRG4 D1G/I26F/E44H, (GGGGS)3 linker, SEQ ID NO: 16, fused to IgG Fc dimer SEQ ID NO: 6 and 7 (protein)
chain 1: B1 chain 1 with Q37V, I41F, E59H
chain 2: B1 chain 2
chain 3: B1 chain 2 with W141S, L143A, Y182V
EC50 (human HER2 and HER4; Table 6): 0.563 nM

B5: Example 5: NRG4 D1G/E35A, (GGGGS)3 linker, SEQ ID NO: 14, fused to IgG Fc dimer SEQ ID NO: 6 and 7 (protein)
chain 1: B1 chain 1 with Q37V, E50A
chain 2: B1 chain 2
chain 3: B1 chain 2 with W141S, L143A, Y182V
EC50 (human HER2 and HER4; [7]): 0.84 ± 0.27 nM

B6: Example 6: NRG4 D1G/I26F/E44K, (GGGGS)3 linker, SEQ ID NO: 15, fused to IgG Fc dimer SEQ ID NO: 6 and 7 (protein)
chain 1: B1 chain 1 with Q37V, I41F, E59K
chain 2: B1 chain 2
chain 3: B1 chain 2 with W141S, L143A, Y182V
EC50 (human HER2 and HER4; Table 6): 0.395 nM

B7: Example 8: NRG4 D1G/I26F/P8E, (GGGGS)3 linker, SEQ ID NO: 17, fused to IgG Fc dimer SEQ ID NO: 6 and 7 (protein)
chain 1: B1 chain 1 with P23E, Q37V, I41F
chain 2: B1 chain 2
chain 3: B1 chain 2 with W141S, L143A, Y182V
EC50 (human HER2 and HER4; Table 6): 0.403 nM

Reference: patent publication US11242370B2, “Neuregulin-4 compounds and methods of use” (Eli Lilly and Company, priority 2019, dated 2022)
